Measurements from patent US20240197756A1, “METHODS OF TREATMENT WITH NEUROACTIVE STEROIDS” (priority 2021, published 2024).

What was measured:
harmaline-induced tremor = assay: rHIT model, coadministration of Compound 1 and Compound 2; format: in vivo, rat; details: Compound 2 p.o. 60 min before harmaline
Description: Rat Harmaline Induced Tremor (rHIT): The rHIT model was used to assess the impact of the combination of Compound 1 and Compound 2 on reducing the symptoms of tremor. Male SD rats (SLAC, Shanghai, China) weighing about 250 g at the time of testing were housed in a 12:12 light-dark cycle room throughout the study, with the lights on from 5 a.m. to 5 p.m, and fed ad libitum. […]
The rHIT methods described in Example 5 were used. […] After the 20-minute baseline recording, rats were dosed with harmaline and the post-harmaline effect was measured for 20 minutes. […]

[1] = system: GABAA receptors in the brain; details: cited from earlier work; for power of the alpha-band frequency (qEEG): comparator GABAA PAMs, previously shown (FIG. 7); for beta-band frequency (qEEG): comparator marketed GABAA PAMs, previously shown
[2] = system: extrasynaptic form of GABAA receptors; details: cited from earlier work
[3] = Khodadoustan et al. (2017); cited from earlier work

Structure (SMILES)	power of the alpha-band frequency (qEEG) [1]	beta-band frequency (qEEG) [1]	also measured
CC(C)(C)NC(=O)CN1CCC(CNC(=O)c2cc(F)cc(Cl)c2)CC1 [Compound 2, N-((1-(2-(tert-butylamino)-2-oxoethyl)piperidine-4-yl)methyl)-3chloro-5-fluorobenzamide]			effect on tremor (harmaline-induced tremor): tremor-reducing effects
CC(=O)[C@H]1CC[C@H]2[C@@H]3CC[C@H]4C[C@H](O)CC[C@]4(C)[C@H]3CC[C@]12C [allopregnanolone]	decrease	Increases	potency at synaptic and extrasynaptic receptors [2]: equipotent
CCOC(=O)C1=C(COCCN)NC(C)=C(C(=O)OC)C1c1ccccc1Cl (centres unmarked) [amlodipine besylate]			Cmax, evening administration compared to morning dosing [3]: increased; Tmax, evening administration compared to morning dosing [3]: reduced
O=C1Nc2ccc(Cl)cc2C(c2ccccc2Cl)=NC1O (centres unmarked) [lorazepam]	decrease	Increases	
